For 22 molecules, GI50 results are on record in US20240383923A1, “HETEROARYL DERIVATIVE AND USE THEREOF” (VORONOI INC., priority 2022, published 2024).

One test relates to BT-474 cancer cells. In words: Inhibition of BT-474 cell proliferation (CellTiter-Glo). The conditions noted are these: Homo sapiens, BT-474 cells, 120 hours. The format is cell-based. The method, boiled down:
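BT-474 cells in RPMI-1640 with 20% FBS, seeded 48 h before dosing with 11 three-fold dilutions (final 0.2 nM to 10 μM). Viability read by CellTiter-Glo luminescence 120 h after treatment, triplicate tests. GI50 derived from growth rate (%) versus control.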
A general note: Cellular ATP, detected with luciferase, serves as a proxy for viable cell number.
Usually GI50 stands for the concentration that inhibits growth by half. Turning to `C=CC(=O)N1CCC(Nc2cc3c(Nc4cc(C)c(Oc5ccn6ncnc6c5)cc4OC)ncnc3cc2OC)CC1` [Example 1, 1-(4-((4-((4-([1,2,4]triazolo[1,5-a]pyridin-7-yloxy)-2-methoxy-5-methylphenyl)amino)-7-methoxyquinazolin-6-yl)amino)piperidin-1-yl)prop-2-en-1-one], the GI50 was at most 50 nM. As to `C=CC(=O)N1CCC(Nc2cc3c(Nc4cc(Cl)c(Oc5ccccn5)cc4OC)ncnc3cc2OC)CC1` [Example 3, 1-(4-((4-((5-chloro-2-methoxy-4-(pyridin-2-yloxy)phenyl)amino)-7-methoxyquinazolin-6-yl)amino)piperidin-1-yl)prop-2-en-1-one], the GI50 is at most 50 nM. Regarding `C=CC(=O)N1CCC(Oc2cc3c(Nc4cc(Cl)c(Oc5ccn6ncnc6c5)cc4OC)ncnc3cc2OC)CC1` [Example 5, 1-(4-((4-((4-([1,2,4]triazolo[1,5-a]pyridin-7-yloxy)-5-chloro-2-methoxyphenyl)amino)-7-methoxyquinazolin-6-yl)oxy)piperidin-1-yl)prop-2-en-1-one], the GI50 was at most 50 nM. Same read-out and setting: in the case of `C=CC(=O)N1CCC(Oc2cc3c(Nc4cc(Cl)c(Oc5cccc(F)c5)cc4OC)ncnc3cc2OC)C(F)C1` (centres unmarked) [Example 6, 1-(4-((4-((5-chloro-4-(3-fluorophenoxy)-2-methoxyphenyl)amino)-7-methoxyquinazolin-6-yl)oxy)-3-fluoropiperidin-1-yl)prop-2-en-1-one] it was at most 50 nM; in that of `COc1cc2ncnc(Nc3cc(C)c(Oc4cccc(NC(C)=O)c4)cc3OC)c2cc1NC(=O)/C(F)=C/[C@H]1CCCN1C` [Example 133, (R,Z)—N-(4-((4-(3-acetamidophenoxy)-2-methoxy-5-methylphenyl)amino)-7-methoxyquinazolin-6-yl)-2-fluoro-3-(1-methylpyrrolidin-2-yl)acrylamide], at most 50 nM; in that of `COc1cc2ncnc(Nc3cc(C)c(Oc4ccn5ncnc5c4)cc3OC)c2cc1NC(=O)/C(F)=C/[C@H]1CCCN1` [Example 135, (R,Z)—N-(4-((4-([1,2,4]triazolo[1,5-a]pyridin-7-yloxy)-2-methoxy-5-methylphenyl)amino)-7-methoxyquinazolin-6-yl)-2-fluoro-3-(pyrrolidin-2-yl)acrylamide], at most 50 nM.

Take `COc1cc2ncnc(Nc3cc(C4CC4)c(Oc4ccn5ncnc5c4)cc3OC)c2cc1NC(=O)/C(F)=C/[C@H]1CCCN1C` [Example 137, (R,Z)—N-(4-((4-([1,2,4]triazolo[1,5-a]pyridin-7-yloxy)-5-cyclopropyl-2-methoxyphenyl)amino)-7-methoxyquinazolin-6-yl)-2-fluoro-3-(1-methylpyrrolidin-2-yl)acrylamide]: the GI50 lay within 50 to 100 nM. Consider `COc1cc2ncnc(Nc3cc(Br)c(Oc4ccn5ncnc5c4)cc3OC)c2cc1NC(=O)/C(F)=C/[C@H]1CCCN1C` [Example 139, (R,Z)—N-(4-((4-([1,2,4]triazolo[1,5-a]pyridin-7-yloxy)-5-bromo-2-methoxyphenyl)amino)-7-methoxyquinazolin-6-yl)-2-fluoro-3-(1-methylpyrrolidin-2-yl)acrylamide], for which the GI50 was at most 50 nM. On the same count and under the same terms, for `COc1cc2ncnc(Nc3cc(Br)c(Oc4ccn5ncnc5c4)cc3OC)c2cc1NC(=O)/C(F)=C\[C@H]1CCCN1C` [Example 140, (R,E)-N-(4-((4-([1,2,4]triazolo[1,5-a]pyridin-7-yloxy)-5-bromo-2-methoxyphenyl)amino)-7-methoxyquinazolin-6-yl)-2-fluoro-3-(1-methylpyrrolidin-2-yl)acrylamide] the value was at most 50 nM; for `COc1cc(Oc2ccn3ncnc3c2)c(C)cc1Nc1ncnc2ccc(NC(=O)/C(F)=C/[C@H]3CCCN3C)c(Cl)c12` [Example 141, (R,Z)—N-(4-((4-([1,2,4]triazolo[1,5-a]pyridin-7-yloxy)-2-methoxy-5-methylphenyl)amino)-5-chloroquinazolin-6-yl)-2-fluoro-3-(1-methylpyrrolidin-2-yl)acrylamide], at most 50 nM.

In the case of `COc1cc2ncnc(Nc3cc(C)c(Oc4ccn5ncnc5c4)cc3OC)c2cc1NC(=O)/C(C#N)=C\C(C)(C)N1CCN(C2COC2)CC1` [Example 144, (Z)—N-(4-((4-([1,2,4]triazolo[1,5-a]pyridin-7-yloxy)-2-methoxy-5-methylphenyl)amino)-7-methoxyquinazolin-6-yl)-2-cyano-4-methyl-4-(4-(oxetan-3-yl)piperazin-1-yl)pent-2-enamide], the GI50 is above 500 nM.

For the molecule `C=C(C(=O)Nc1cc2c(Nc3cc(C)c(Oc4ccn5ncnc5c4)cc3OC)ncnc2cc1OC)n1cccn1` [Example 147, N-(4-((4-([1,2,4]triazolo[1,5-a]pyridin-7-yloxy)-2-methoxy-5-methylphenyl)amino)-7-methoxyquinazolin-6-yl)-2-(1H-pyrazol-1-yl)acrylamide], the GI50 was in the range of 100 to 500 nM. The same measure, in the same setting: in the case of `[2H]C([2H])([2H])Oc1cc(Oc2ccn3ncnc3c2)c(C)cc1Nc1ncnc2cc(OC)c(NC(=O)/C=C/[C@H]3CCCN3C)cc12` [Example 148, (R,E)-N-(4-((4-([1,2,4]triazolo[1,5-a]pyridin-7-yloxy)-2-(methoxy-d3)-5-methylphenyl)amino)-7-methoxyquinazolin-6-yl)-3-(1-methylpyrrolidin-2-yl)acrylamide] it was at most 50 nM; in that of `[2H]C([2H])([2H])Oc1cc(Oc2ccn3ncnc3c2)c(C)cc1Nc1ncnc2cc(OC)c(NC(=O)/C(F)=C/[C@H]3CCCN3C)cc12` [Example 149, (R,Z)—N-(4-((4-([1,2,4]triazolo[1,5-a]pyridin-7-yloxy)-2-(methoxy-d3)-5-methylphenyl)amino)-7-methoxyquinazolin-6-yl)-2-fluoro-3-(1-methylpyrrolidin-2-yl)acrylamide], at most 50 nM. Still for that read-out and setting: in the case of `[2H]C([2H])([2H])Oc1cc(Oc2ccn3ncnc3c2)c(C)cc1Nc1ncnc2cc(OC)c(NC(=O)/C(F)=C\[C@H]3CCCN3C)cc12` [Example 150, (R,E)-N-(4-((4-([1,2,4]triazolo[1,5-a]pyridin-7-yloxy)-2-(methoxy-d3)-5-methylphenyl)amino)-7-methoxyquinazolin-6-yl)-2-fluoro-3-(1-methylpyrrolidin-2-yl)acrylamide] it was at most 50 nM. Regarding `[2H]C([2H])([2H])Oc1cc(Oc2ccn3ncnc3c2)c(F)cc1Nc1ncnc2cc(OC)c(NC(=O)/C(F)=C/[C@H]3CCCN3C)cc12` [Example 151, (R,Z)—N-(4-((4-([1,2,4]triazolo[1,5-a]pyridin-7-yloxy)-5-fluoro-2-(methoxy-d3)phenyl)amino)-7-methoxyquinazolin-6-yl)-2-fluoro-3-(1-methylpyrrolidin-2-yl)acrylamide], the GI50 was at most 50 nM. `[2H]C([2H])([2H])Oc1cc(Oc2ccn3ncnc3c2)c(F)cc1Nc1ncnc2cc(OC)c(NC(=O)/C(F)=C\[C@H]3CCCN3C)cc12` [Example 152, (R,E)-N-(4-((4-([1,2,4]triazolo[1,5-a]pyridin-7-yloxy)-5-fluoro-2-(methoxy-d3)phenyl)amino)-7-methoxyquinazolin-6-yl)-2-fluoro-3-(1-methylpyrrolidin-2-yl)acrylamide]: the GI50 was at most 50 nM. Same read-out and setting: in the case of `[2H]C([2H])([2H])N1CCC[C@@H]1/C=C/C(=O)Nc1cc2c(Nc3cc(C)c(Oc4ccn5ncnc5c4)cc3OC)ncnc2cc1OC` [Example 153, (R,E)-N-(4-((4-([1,2,4]triazolo[1,5-a]pyridin-7-yloxy)-2-methoxy-5-methylphenyl)amino)-7-methoxyquinazolin-6-yl)-3-(1-(methyl-d3)pyrrolidin-2-yl)acrylamide] it was at most 50 nM; in that of `[2H]C([2H])([2H])N1CCC[C@@H]1/C=C(\F)C(=O)Nc1cc2c(Nc3cc(C)c(Oc4ccn5ncnc5c4)cc3OC)ncnc2cc1OC` [Example 154, (R,Z)—N-(4-((4-([1,2,4]triazolo[1,5-a]pyridin-7-yloxy)-2-methoxy-5-methylphenyl)amino)-7-methoxyquinazolin-6-yl)-2-fluoro-3-(1-(methyl-d3)pyrrolidin-2-yl)acrylamide], at most 50 nM.

With `[2H]C([2H])([2H])N1CCC[C@@H]1/C=C(\F)C(=O)Nc1cc2c(Nc3cc(F)c(Oc4ccn5ncnc5c4)cc3OC)ncnc2cc1OC` [Example 155, (R,Z)—N-(4-((4-([1,2,4]triazolo[1,5-a]pyridin-7-yloxy)-5-fluoro-2-methoxyphenyl)amino)-7-methoxyquinazolin-6-yl)-2-fluoro-3-(1-(methyl-d3)pyrrolidin-2-yl)acrylamide], the GI50 is at most 50 nM. Regarding `[2H]C([2H])([2H])N1CCC[C@@H]1/C=C(\F)C(=O)Nc1cc2c(Nc3cc(Cl)c(Oc4ccn5ncnc5c4)cc3OC)ncnc2cc1OC` [Example 156, (R,Z)—N-(4-((4-([1,2,4]triazolo[1,5-a]pyridin-7-yloxy)-5-chloro-2-methoxyphenyl)amino)-7-methoxyquinazolin-6-yl)-2-fluoro-3-(1-(methyl-d3)pyrrolidin-2-yl)acrylamide], the GI50 is at most 50 nM.

On to `[2H]C([2H])([2H])N1CCC[C@@H]1/C=C(/F)C(=O)Nc1cc2c(Nc3cc(F)c(Oc4ccn5ncnc5c4)cc3OC)ncnc2cc1OC` [Example 157, (R,E)-N-(4-((4-([1,2,4]triazolo[1,5-a]pyridin-7-yloxy)-5-fluoro-2-methoxyphenyl)amino)-7-methoxyquinazolin-6-yl)-2-fluoro-3-(1-(methyl-d3)pyrrolidin-2-yl)acrylamide], for which the GI50 was at most 50 nM.

In a further test the test system is N-87 cancer cells. Nature of the test: Inhibition of N-87 cell proliferation (CellTiter-Glo). The format is cell-based. To be noted: N-87 cells, 72 hours. On the procedure: N-87 cancer cells were cultured by using RPMI-1640 medium with 10% FBS. The N-87 cancer cells were seeded to a white clear bottom 96 well plate (Corning) at 5,000 cells per well 24 hours before the […] cancer cells were treated with Example Compounds. Example Compounds were diluted in dimethylsulfoxide (5-fold diluted, total 11 concentrations) and 0.5 μL each was injected so that the final concentration was […]. For the measurement of living cells, the cells were stored at room temperature for 10 minutes using the CellTiter-Glo cell viability reagent (Promega) after 72 hours after the treatment of Example Compounds, and then the luminescence intensity was measured using the reader (SynergyNeo, Biotek).
The result value was calculated as a cell growth rate (%) compared to a control group. Graphs were plotted and GI50 values were calculated using the GraphPad Prism version 8.0 program, and the results are shown in Table 18 below.
In the case of `C=CC(=O)N1CCC(Nc2cc3c(Nc4cc(C)c(Oc5ccn6ncnc6c5)cc4OC)ncnc3cc2OC)CC1` [Example 1, 1-(4-((4-((4-([1,2,4]triazolo[1,5-a]pyridin-7-yloxy)-2-methoxy-5-methylphenyl)amino)-7-methoxyquinazolin-6-yl)amino)piperidin-1-yl)prop-2-en-1-one], the GI50 was at most 50 nM. Same read-out and setting: for `C=CC(=O)N1CCC(Nc2cc3c(Nc4cc(Cl)c(Oc5ccccn5)cc4OC)ncnc3cc2OC)CC1` [Example 3, 1-(4-((4-((5-chloro-2-methoxy-4-(pyridin-2-yloxy)phenyl)amino)-7-methoxyquinazolin-6-yl)amino)piperidin-1-yl)prop-2-en-1-one] the value was at most 50 nM; for `C=CC(=O)N1CCC(Oc2cc3c(Nc4cc(Cl)c(Oc5ccn6ncnc6c5)cc4OC)ncnc3cc2OC)CC1` [Example 5, 1-(4-((4-((4-([1,2,4]triazolo[1,5-a]pyridin-7-yloxy)-5-chloro-2-methoxyphenyl)amino)-7-methoxyquinazolin-6-yl)oxy)piperidin-1-yl)prop-2-en-1-one], at most 50 nM. Same read-out and setting: for `C=CC(=O)N1CCC(Oc2cc3c(Nc4cc(Cl)c(Oc5cccc(F)c5)cc4OC)ncnc3cc2OC)C(F)C1` (centres unmarked) [Example 6, 1-(4-((4-((5-chloro-4-(3-fluorophenoxy)-2-methoxyphenyl)amino)-7-methoxyquinazolin-6-yl)oxy)-3-fluoropiperidin-1-yl)prop-2-en-1-one] the value was at most 50 nM.
